These results are taken from US10080757B2 (WISCONSIN ALUMNI RESEARCH FOUNDATION, priority 2016, dated 2018).

Molecules are shown by their SMILES. In brackets after ≈: the same amount, converted by molar mass. Like-named read-outs stand apart in the source and are kept apart here.

One assay has as its target T1, recombinant MtbUGM (Mycobacterium tuberculosis, UniProt P9WIQ1).
T1 construct: made in house
As to the kind of experiment: biochemical. The note with it: for inhibition at 50 µM: read-out: % inhib MtbUGM (50 μM); for inhibition at 100 µM: read-out: % inhib MtbUGM (100 μM); for IC50: Table 4; for inhibition at 10 µM: read-out: % inhib MtbUGM (10 μM).

In another assay the test system is C. elegans. Kind of assay: C. elegans growth and proliferation. The note with it: 250 μM; Table 8. The format is in vivo.
For the next assay, the system named is CeUGM. As to the kind of experiment: CeUGM inhibition. The format is biochemical, C. elegans. The note with it: 10 μM.
For another assay, the system named is M. smegmatis. Kind of assay: Microplate Alamar Blue Assay (MIC, liquid culture). In kind it is cell-based. Particulars: Mycolicibacterium smegmatis; Table 4. How it is done: The culture was diluted to OD600=˜0.02 in LB liquid media and added to 96-well plates at a final volume of 100 μL, with added inhibitor concentrations in two-fold dilutions. Perimeter wells were filled with sterile water. After 24 hours at 37° C. in a shaking incubator, 10 μL of the Alamar Blue reagent was added to each well. The plate was incubated for an additional 4 hours at 37° C., at which point fluorescence emission at 585 nm was measured using a plate reader. The lowest inhibitor concentration at which 99% or greater growth inhibition was observed was determined to be the MIC.

T1 sequence (P9WIQ1 whole entry): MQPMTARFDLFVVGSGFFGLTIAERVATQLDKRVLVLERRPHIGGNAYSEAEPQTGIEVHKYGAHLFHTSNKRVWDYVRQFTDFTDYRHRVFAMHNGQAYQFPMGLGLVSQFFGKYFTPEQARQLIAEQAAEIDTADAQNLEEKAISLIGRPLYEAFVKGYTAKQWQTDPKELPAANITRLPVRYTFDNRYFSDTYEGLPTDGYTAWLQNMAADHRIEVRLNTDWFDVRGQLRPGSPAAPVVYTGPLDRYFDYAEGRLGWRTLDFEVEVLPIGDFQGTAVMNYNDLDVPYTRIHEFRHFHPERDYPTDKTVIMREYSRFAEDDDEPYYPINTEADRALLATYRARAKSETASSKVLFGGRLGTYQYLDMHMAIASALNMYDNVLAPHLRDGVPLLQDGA

Turning to `O=C(O)CC1Sc2nnc(Cc3ccc(Br)cc3)n2N=C1c1ccc(Cl)cc1` (centres unmarked) [Compound 11, 2-(3-(4-bromobenzyl)-6-(4-chlorophenyl)-7H-[1,2,4]triazolo[3,4-b][1,3,4]thiadiazin-7-yl)acetic acid], on recombinant MtbUGM (50 μM, mean of two replicates), the inhibition at 50 µM came out at 36%. Also, the inhibition at 100 µM at recombinant MtbUGM (100 μM, mean of two replicates) was determined as 72%. Moreover, the IC50 on recombinant MtbUGM was 80 ± 29 µM. The “Effective inhibitor of C. elegans growth at 250 μM” value (“Effective inhibitor” below) with C. elegans was “No”. Also, the “CeUGM % Inhibition at 10 μM” value with CeUGM worked out at 53.5 ± 3.0%. The same molecule returned an MIC against M. smegmatis of 500 µM (≈ 239 µg/mL).
`CS(=O)(=O)NC(=O)CC1Sc2nnc(Cc3ccc(Br)cc3)n2N=C1c1ccc(Cl)cc1` (centres unmarked) [Compound 12, 2-(3-(4-bromobenzyl)-6-(4-chlorophenyl)-7H-[1,2,4]triazolo[3,4-b][1,3,4]thiadiazin-7-yl)-N-(methylsulfonyl)acetamide]: the inhibition at 50 µM on recombinant MtbUGM (50 μM, mean of two replicates) stood at 50%. Besides, the inhibition at 100 µM on recombinant MtbUGM (100 μM, mean of two replicates) came to 58%. Further, the IC50 at recombinant MtbUGM came to 108 ± 42 µM. The “Effective inhibitor” value in the assay with C. elegans was “No”. For the same molecule, the “CeUGM % Inhibition at 10 μM” value with CeUGM was found to be 68.1 ± 2.1%. The same molecule had an MIC in the assay on M. smegmatis of 500 µM (≈ 277 µg/mL).
Turning to `COC(=O)CC1Sc2nnc(Cc3ccc(Br)cc3)n2N=C1c1ccc(Cl)cc1` (centres unmarked) [Compound 14, Methyl-2-(3-(4-bromobenzyl)-6-(4-chlorophenyl)-7H-[1,2,4]triazolo[3,4-b][1,3,4]thiadiazin-7-yl)acetate], the inhibition at 100 µM at recombinant MtbUGM (100 μM, mean of two replicates) came out at 0%. Moreover, the “Effective inhibitor” value with C. elegans is “No”.
Take `O=C(O)CC1Sc2nnc(-c3cccs3)n2N=C1c1ccc(Cl)cc1` (centres unmarked) [Compound 15, 2-(6-(4-chlorophenyl)-3-(thiophen-2-yl)-7H-[1,2,4]triazolo[3,4-b][1,3,4]thiadiazin-7-yl)acetic acid]: the inhibition at 100 µM at recombinant MtbUGM (100 μM, mean of two replicates) was 50%.
For the molecule `O=C(O)CC1Sc2nnc(Cc3ccc(Br)cc3)n2N=C1c1ccc(Cl)c(Cl)c1` (centres unmarked) [Compound 16, 2-(3-(4-bromobenzyl)-6-(3,4-dichlorophenyl)-7H-[1,2,4]triazolo[3,4-b][1,3,4]thiadiazin-7-yl)acetic acid], the inhibition at 50 µM at recombinant MtbUGM (50 μM, mean of two replicates) was found to be 78%. At recombinant MtbUGM (100 μM, mean of two replicates), the inhibition at 100 µM was determined as 95%.
Regarding `Cc1ccc(C2=Nn3c(Cc4ccc(Br)cc4)nnc3SC2CC(=O)O)cc1C` (centres unmarked) [Compound 17, 2-(3-(4-bromobenzyl)-6-(3,4-dimethylphenyl)-7H-[1,2,4]triazolo[3,4-b][1,3,4]thiadiazin-7-yl)acetic acid], at recombinant MtbUGM (50 μM, mean of two replicates), the inhibition at 50 µM worked out at 41%. Also, at recombinant MtbUGM (100 μM, mean of two replicates), the inhibition at 100 µM came out at 80%.
Consider `O=C(O)CC1Sc2nnc(-c3cccs3)n2N=C1c1ccc(Cl)c(Cl)c1` (centres unmarked) [Compound 18, 2-(6-(3,4-dichlorophenyl)-3-(thiophen-2-yl)-7H-[1,2,4]triazolo[3,4-b][1,3,4]thiadiazin-7-yl)acetic acid], for which the inhibition at 100 µM at recombinant MtbUGM (100 μM, mean of two replicates) came to 80%.
As for `O=C(O)CC1Sc2nnc(Cc3ccc(Br)cc3)n2N=C1c1ccc(Br)cc1` (centres unmarked) [Compound 19, 2-(3-(4-bromobenzyl)-6-(4-bromophenyl)-7H-[1,2,4]triazolo[3,4-b][1,3,4]thiadiazin-7-yl)acetic acid], on recombinant MtbUGM (50 μM, mean of two replicates), the inhibition at 50 µM came out at 67%. Further, on recombinant MtbUGM (100 μM, mean of two replicates), the inhibition at 100 µM came to 90%.
Turning to `O=C(O)CC1Sc2nnc(Cc3ccc(Br)cc3)n2N=C1c1ccc(C(F)(F)F)cc1` (centres unmarked) [Compound 20, 2-(3-(4-bromobenzyl)-6-(4-(trifluoromethyl)phenyl)-7H-[1,2,4]triazolo[3,4-b][1,3,4]thiadiazin-7-yl)acetic acid], the inhibition at 50 µM at recombinant MtbUGM (50 μM, mean of two replicates) was 11%. Besides, the inhibition at 100 µM on recombinant MtbUGM (100 μM, mean of two replicates) stood at 57%.
In the same order, the values of `Cc1ccc(C2=Nn3c(Cc4ccc(Br)cc4)nnc3SC2CC(=O)O)cc1` (centres unmarked) [Compound 21, 2-(3-(4-bromobenzyl)-6-(p-tolyl)-7H-[1,2,4]triazolo[3,4-b][1,3,4]thiadiazin-7-yl)acetic acid] are 32% and 63%.
Consider `COc1ccc(C2=Nn3c(Cc4ccc(Br)cc4)nnc3SC2CC(=O)O)cc1` (centres unmarked) [Compound 22, 2-(3-(4-bromobenzyl)-6-(4-methoxyphenyl)-7H-[1,2,4]triazolo[3,4-b][1,3,4]thiadiazin-7-yl)acetic acid], for which, on recombinant MtbUGM (50 μM, mean of two replicates), the inhibition at 50 µM worked out at 35%. Also, on recombinant MtbUGM (100 μM, mean of two replicates), the inhibition at 100 µM is 44%.
For the molecule `O=C(O)CC1Sc2nnc(Cc3ccc(Br)cc3)n2N=C1c1ccc(F)cc1` (centres unmarked) [Compound 23, 2-(3-(4-bromobenzyl)-6-(4-fluorophenyl)-7H-[1,2,4]triazolo[3,4-b][1,3,4]thiadiazin-7-yl)acetic acid], the inhibition at 50 µM at recombinant MtbUGM (50 μM, mean of two replicates) was 25%. Besides, the inhibition at 100 µM on recombinant MtbUGM (100 μM, mean of two replicates) turned out to be 39%.
For the molecule `Cc1ccc(C2=Nn3c(Cc4ccc(Br)cc4)nnc3SC2CC(=O)O)c(C)c1` (centres unmarked) [Compound 24, 2-(3-(4-bromobenzyl)-6-(2,4-dimethylphenyl)-7H-[1,2,4]triazolo[3,4-b][1,3,4]thiadiazin-7-yl)acetic acid], the inhibition at 50 µM on recombinant MtbUGM (50 μM, mean of two replicates) is 1%. In addition, the inhibition at 100 µM at recombinant MtbUGM (100 μM, mean of two replicates) stood at 0%.
Take `O=C(O)CC1Sc2nnc(-c3ccc(Br)cc3)n2N=C1c1ccc(Cl)cc1` (centres unmarked) [Compound 26, 2-(3-(4-bromophenyl)-6-(4-chlorophenyl)-7H-[1,2,4]triazolo[3,4-b][1,3,4]thiadiazin-7-yl)acetic acid]: the inhibition at 50 µM on recombinant MtbUGM (50 μM, mean of two replicates) was 23%. The inhibition at 100 µM on recombinant MtbUGM (100 μM, mean of two replicates) is 41%.
In the same order, the values of `O=C(O)CC1Sc2nnc(CCc3ccc(Br)cc3)n2N=C1c1ccc(Cl)cc1` (centres unmarked) [Compound 27, 2-(3-(4-bromophenethyl)-6-(4-chlorophenyl)-7H-[1,2,4]triazolo[3,4-b][1,3,4]thiadiazin-7-yl)acetic acid] are 48% and 69%.
With `O=C(O)CC1Sc2nnc(Cc3ccccc3)n2N=C1c1ccc(Cl)cc1` (centres unmarked) [Compound 28, 2-(3-benzyl-6-(4-chlorophenyl)-7H-[1,2,4]triazolo[3,4-b][1,3,4]thiadiazin-7-yl)acetic acid], the inhibition at 50 µM on recombinant MtbUGM (50 μM, mean of two replicates) came out at 30%. For the same molecule, on recombinant MtbUGM (100 μM, mean of two replicates), the inhibition at 100 µM turned out to be 43%.
On to `O=C(O)CC1Sc2nnc(Cc3ccc(-c4ccccc4)cc3)n2N=C1c1ccc(Cl)cc1` (centres unmarked) [Compound 29, 2-(3-([1,1′-biphenyl]-4-ylmethyl)-6-(4-chlorophenyl)-7H-[1,2,4]triazolo[3,4-b][1,3,4]thiadiazin-7-yl)acetic acid], for which, on recombinant MtbUGM (50 μM, mean of two replicates), the inhibition at 50 µM stood at 100%. Further, on recombinant MtbUGM (100 μM, mean of two replicates), the inhibition at 100 µM is 100%.
Regarding `O=C(O)CC1Sc2nnc(Cc3ccc4ccccc4c3)n2N=C1c1ccc(Cl)cc1` (centres unmarked) [Compound 30, 2-(6-(4-chlorophenyl)-3-(naphthalen-2-ylmethyl)-7H-[1,2,4]triazolo[3,4-b][1,3,4]thiadiazin-7-yl)acetic acid], at recombinant MtbUGM (50 μM, mean of two replicates), the inhibition at 50 µM came to 49%. In addition, the inhibition at 100 µM at recombinant MtbUGM (100 μM, mean of two replicates) came out at 88%.
On to `O=C(O)CC1Sc2nnc(Cc3ccc(-c4ccccc4)cc3)n2N=C1c1ccc(Cl)c(Cl)c1` (centres unmarked) [Compound 31, 2-(3-([1,1′-biphenyl]-4-ylmethyl)-6-(3,4-dichlorophenyl)-7H-[1,2,4]triazolo[3,4-b][1,3,4]thiadiazin-7-yl)acetic acid], for which, at recombinant MtbUGM (10 μM, mean of two replicates), the inhibition at 10 µM was determined as 50%. The inhibition at 50 µM on recombinant MtbUGM (50 μM, mean of two replicates) was found to be 100%. For the same molecule, at recombinant MtbUGM (100 μM, mean of two replicates), the inhibition at 100 µM is 100%.
On to `COC(=O)CC1Sc2nnc(-c3cccs3)n2N=C1c1ccc(Cl)cc1` (centres unmarked) [Compound 32, Methyl-2-(6-(4-chlorophenyl)-3-(thiophen-2-yl)-7H-[1,2,4]triazolo[3,4-b][1,3,4]thiadiazin-7-yl)acetate], for which the inhibition at 100 µM at recombinant MtbUGM (100 μM, mean of two replicates) amounted to 20%.
In the case of `C=CCNC(=O)CC1Sc2nnc(-c3cccs3)n2N=C1c1ccc(Cl)cc1` (centres unmarked) [Compound 34, N-allyl-2-(6-(4-chlorophenyl)-3-(thiophen-2-yl)-7H-[1,2,4]triazolo[3,4-b][1,3,4]thiadiazin-7-yl)acetamide], on recombinant MtbUGM (100 μM, mean of two replicates), the inhibition at 100 µM stood at 0%.
For `C=CCNC(=O)CC1Sc2nnc(Cc3ccc(Br)cc3)n2N=C1c1ccc(Cl)cc1` (centres unmarked) [Compound 35, N-allyl-2-(3-(4-bromobenzyl)-6-(4-chlorophenyl)-7H-[1,2,4]triazolo[3,4-b][1,3,4]thiadiazin-7-yl)acetamide], on recombinant MtbUGM (100 μM, mean of two replicates), the inhibition at 100 µM was 0%.
For the molecule `O=C(CC1Sc2nnc(Cc3ccc(Br)cc3)n2N=C1c1ccc(Cl)cc1)NS(=O)(=O)c1cccs1` (centres unmarked) [Compound 36], on recombinant MtbUGM, the inhibition at 10 µM came to 18%, the inhibition at 50 µM was 87% and the inhibition at 100 µM is 100%.
Turning to `O=C(CC1Sc2nnc(Cc3ccc(Br)cc3)n2N=C1c1ccc(Cl)cc1)NS(=O)(=O)c1ccc(Cl)s1` (centres unmarked) [Compound 37], at recombinant MtbUGM, the inhibition at 10 µM came to 35%, the inhibition at 50 µM was determined as 100% and the inhibition at 100 µM came out at 100%.
As to `Cn1cnc(S(=O)(=O)NC(=O)CC2Sc3nnc(Cc4ccc(Br)cc4)n3N=C2c2ccc(Cl)cc2)c1` (centres unmarked) [Compound 38], at recombinant MtbUGM, the inhibition at 50 µM amounted to 36% and the inhibition at 100 µM worked out at 68%.
On to `O=C(CC1Sc2nnc(Cc3ccc(Br)cc3)n2N=C1c1ccc(Cl)c(Cl)c1)NS(=O)(=O)c1ccccc1` (centres unmarked) [Compound 39], for which, at recombinant MtbUGM, the inhibition at 10 µM was determined as 51%, the inhibition at 50 µM stood at 100% and the inhibition at 100 µM worked out at 100%.
Regarding `O=C(CC1Sc2nnc(Cc3ccc(-c4ccccc4)cc3)n2N=C1c1ccc(Cl)c(Cl)c1)NS(=O)(=O)c1ccccc1` (centres unmarked) [Compound 40], on recombinant MtbUGM, the inhibition at 10 µM stood at 85%, the inhibition at 50 µM amounted to 100% and the inhibition at 100 µM stood at 100%.
